IC50 data for 1 compound are collected here from patent US20250064955A1, “DRUG CONJUGATES AND METHODS OF PREPARING AND USING THE SAME” (priority 2021, published 2025).

The IC50 is the concentration at which inhibition is half-maximal. A higher IC50 goes with a need for much substance.

Where a SMILES comes first, the peptide text is derived from it. [ ]: non-standard residue; d: D form. The star is where a group is joined. Dolaproine = CO[C@@H]([C@@H]1CCCN1)[C@@H](C)C(=O)O; Dil = CC[C@H](C)[C@H](NC)[C@@H](CC(=O)O)OC; X1 = C[C@@H](N*)[C@@H](O)c1ccccc1; NMeV = CN[C@H](C(=O)O)C(C)C

One assay concerns SK-BR-3 cells. The assay can be described thus: In vitro potency, cell viability (Cell Titer Glo 2.0), SK-BR-3. It is filed as cell-based. The conditions noted are these: Homo sapiens, SK-BR-3, 120 h. The procedure: (§1) HCC1954 breast ductal carcinoma or SK-BR-3 cells (ATCC, Manassas, VA, USA) were seeded into 384-well white-walled culture plates and allowed to adhere for 2-4 hours. Cells were then treated with test articles at least in duplicate by addition of 5-fold serially diluted test articles prepared at 2× final concentration and incubated at 37° C. for 120 hours. Cell viability following treatment was determined by Cell Titer Glo 2.0 Assay (Promega, Madison, WI, USA) and normalized to non-treated controls. Dose-response relationships were analyzed using GraphPad Prism (La Jolla, CA, USA), and IC50 values were derived from non-linear regression analyses using a 4-parameter logistic equation.
Background: In ATP-based viability assays light output follows the ATP content of the culture.

Assay [1] relates to HCC1954 breast ductal carcinoma cells. Put plainly: In vitro potency, cell viability (Cell Titer Glo 2.0), HCC1954. The class given is cell-based. The conditions noted are these: Homo sapiens, HCC1954, 120 h. The procedure:
as §1

With `CC[C@H](C)[C@@H]([C@@H](CC(=O)N1CCC[C@H]1[C@H](OC)[C@@H](C)C(=O)N[C@H](C)[C@@H](O)c1ccccc1)OC)N(C)C(=O)[C@@H](NC(=O)[C@@H](NC)C(C)C)C(C)C` [MMAE, (S)-N-((3R,4S,5S)-1-((S)-2-((1R,2R)-3-(((1S,2R)-1-hydroxy-1-phenylpropan-2-yl)amino)-1-methoxy-2-methyl-3-oxopropyl)pyrrolidin-1-yl)-3-methoxy-5-methyl-1-oxoheptan-4-yl)-N,3-dimethyl-2-((S)-3-methyl-2-(methylamino)butanamido)butanamide] (H-[NMeV]V[Dil][Dolaproine]-X1), the IC50 was 0.127 nM in the assay with SK-BR-3 cells and 0.21 nM in assay [1].
